Assay results: patent US20230234920A1, “Azirine Containing Compounds as Anti-Angiogenesis Agents and a Process for the Preparation Thereof” (COUNCIL OF SCIENTIFIC & INDUSTRIAL RESEARCH, priority 2020, published 2023)

Legend:
HUVECs protein lysate = experiment: Drug Affinity Receptor Target (DART) analysis; assay type: binding, human; details: 10 mM
Method: HUVECs with confluency of 80-85% in 100 mm dish were trypsinised and the media was removed and washed twice with 1×PBS. These cells were lysed with lysis buffer at 4° C. Control and treatment group with […] of protein were incubated with vehicle and Compound 1 at a concentration of 10 mM for 15-30 mins at RT with gentle shaking. Then different proteases like thermolysin (10 μg/15 μL) and pronase at […] were added to both the control and treatment groups for 5-10 mins at RT. Digestion was stopped by adding protease inhibitor (20×) at specific interval and allowed to incubate at 4° C. for 10 mins. 6×SDS-PAGE loading dye was added to all the respective samples and heated at 70° C. for 10 mins. SDS-PAGE was performed for the given control and treatment group samples and then the gel was stained with 0.05% Coomassie Brilliant Blue (CBB-R250). After destaining the gel, bands of different molecular weight of treatment and control groups were excised off from the gel and further employed for the protein sequence analysis through LC/MS-MS (Liquid chromatography/Mass spectroscopy).

phospho-VEGFR2 = experiment: Immunoblotting of treated HUVECs, phospho-VEGFR2; assay type: cell-based, human; details: 250 nM, 6 h
Method: (A) Serum-starved HUVECs were treated with control (0.1% DMSO), sunitinib and Compound 1 at a given concentrations and then incubated for 6 h. The expression level of phospho-VEGFR2 and GAPDH (housekeeping protein) was analyzed by immunoblotting. (B) Blots were quantified with Image-J software and the bar graphs represent the relative density of phospho-VEGFR2 normalized with GAPDH and the data are represented as mean±SEM with significant difference compared with control at *p<0.05. (D) Protein angiogenesis array showing up-regulation of anti-angiogenic protein and down-regulation of pro-angiogenic proteins on endothelial cell treated with Compound 1 at 260 nM.
Whole cell lysates of endothelial cells at 6 h of treatment with Compound 1 (250 nM) and sunitinib (50 nM) were prepared using the RIPA-lysis buffer. Proteins were fractionated and resolved on 8% SDS-PAGE gels and transferred onto PVDF membranes (Millipore). After incubation in blocking buffer (5% BSA in 1×TBST) for 1 h the membranes were incubated with primary antibodies specific for p-Akt and p-Src. GAPDH was used as housekeeping and loading control. The blots were then incubated with specific HRP-conjugated secondary antibodies and bands were visualized using ECL (Millipore) on Image Quant (LAS4010) chemiluminescence detection system. The band intensities were quantified using My Image Analysis software.

protection of protein band against protease digestion (HUVECs protein lysate): Intact protein band was observed
Compound: CCOC(=O)C1N=C1CCc1ccc(OC)cc1 (racemic) [Compound 1, Ethyl 3-(4-methoxyphenethyl)-2H-azirine-2-carboxylate]
p-VEGFR2 expression (phospho-VEGFR2): marked reduction
